Source: patent US9427398B2, “Parenteral solutions containing metolazone” (Academic Pharmaceuticals Incorporated, priority 2008, dated 2016)

How the values were obtained:
Sprague-Dawley male rats = assay: Diuretic action of parenteral formulations, intraperitoneal administration in rats (24 h urine volume and Na+); type: in vivo, rat; details: for urine output: 24 h urine, n=6, mean±SD; for urine volume voided over 24 hours compared with placebo: intraperitoneal, furosemide 2, 4, 6 mg/kg (P≦0.01), metolazone 2 mg/kg in 2 different formulations
Procedure: Sprague-Dawley male rats (400 to 500 g) were used for the in vivo experiments. The rats were housed at a controlled temperature (22° C.), fed regularly and had free access to water. Rats were divided into 7 groups with 6 animals per group for the purposes of the study. The rats were deprived of food and water for 24 hours before beginning the study. After this fasting period, normal saline ([…]) was given by oral route. […] All rats were placed in metabolic cages for urine collection. Urine was collected for 24 hours after injection, and the volume measured and the (Na^+) concentration in urine were determined using an ion-specific electrode method, NOVA CRT (NOVA Biomedical, Waltham, Mass.) All data are presented as mean±SD of n observations. For statistical comparison, one-way analysis or variance ANOVA or Student t test was employed. A two-sided P value≦0.05 was considered significant.

[1] = cited from earlier work

Structure (SMILES)	urine output (Sprague-Dawley male rats; 2 mg/kg intraperitoneally)	urine output (Sprague-Dawley male rats; 4 mg/kg intraperitoneally)	urine output (Sprague-Dawley male rats; 6 mg/kg intraperitoneally)	urine volume voided over 24 hours compared with placebo (Sprague-Dawley male rats)	solubility in water [1]
NS(=O)(=O)c1cc(C(=O)O)c(NCc2ccco2)cc1Cl [Furosemide, furosemide]	9 ± 1 mL/day	14 ± 2 mL/day	17 ± 2 mL/day	significantly greater	
Cc1ccccc1N1C(=O)c2cc(S(N)(=O)=O)c(Cl)cc2NC1C (stereo not shown) [Metolazone, 7 chloro-1,2,3,4-tetrahydro-2-methyl-3-(-2-methylphenyl)-4-oxo-6-quinazoline sulfonamide]	16 ± 3 mL/day			greater in each instance	sparingly soluble
